Measurements reported in patent US8841301B2, “Selective NR2B antagonists” (Bristol-Myers Squibb Company, priority 2011, dated 2014).
Like-named read-outs stand apart in the source and are kept apart here.

Biological target: hNR2B (Homo sapiens, UniProt Q05586+Q13224)
Assay: Electrophysiology NMDA receptor experiments: two electrode voltage-clamp in Xenopus laevis oocytes expressing GluN1/GluN2 subunits
Type: cell-based
Settings: oocytes voltage clamped at −40 mV, 50 μM glutamate, 30 μM glycine
Procedure: Electrophysiology NMDA Receptor Experiments.
Stage V and VI oocytes were surgically removed from the ovaries of large, well-fed and healthy Xenopus laevis anesthetized with 3-amino-benzoic acid ethyl ester (3 gm/l). Clusters of isolated oocytes were incubated with 292 U/ml Worthington (Freehold, N.J.) type IV collagenase or 1.3 mg/ml collagenase (Life Technologies, Gaithersburg, Md.; 17018-029) for 2 hr in Ca^2+-free solution comprised of (in mM) 115 NaCl, 2.5 KCl, and 10 HEPES, pH 7.5, with slow agitation to remove the follicular cell layer. Oocytes were then washed in the same solution supplemented with 1.8 mM CaCl2 and maintained in Barth's solution comprised of (in mM): 88 NaCl, 1 KCl, 2.4 NaHCO3, 10 HEPES, 0.82 MgSO4, 0.33 Ca(NO3)2, and 0.91 CaCl2 and supplemented with 100 μg/ml gentamycin, 10 μg/ml streptomycin, and 10 μg/ml penicillin. Oocytes were manually defolliculated and injected within 24 hrs of isolation with 3-5 ng of human GluN1 subunit cRNA and 7-10 ng of human GluN2 cRNA subunit in a 50 nl volume, and incubated in Barth's solution at 18° C. for 2-7 d. Glass injection pipettes had tip sizes ranging from 10-20 microns, and were backfilled with mineral oil. cRNA was synthesized from linearized template cDNA for rat glutamate receptor subunits according to manufacturer specifications (Ambion).
Two electrode voltage-clamp recordings were made 2-7 days post-injection. Oocytes were placed in a dual-track plexiglass recording chamber with a single perfusion line that splits in a Y-configuration to perfuse two oocytes. Dual recordings were made at room temperature (23° C.) using two Warner OC725B two-electrode voltage clamp amplifiers, arranged as recommended by the manufacturer. Glass microelectrodes (1-10 Megaohms) were filled with 300 mM KCl (voltage electrode) or 3 M KCl (current electrode). The bath clamps communicated across silver chloride wires placed into each side of the recording chamber, both of which were assumed to be at a reference potential of 0 mV. Oocytes were perfused with a solution comprised of (in mM) 90 NaCl, 1 KCl, 10 HEPES, […] and 0.5 BaCl2; pH 7.4, adjusted by addition of NaOH. Oocytes were recorded under voltage clamp at −40 mV. Final concentrations for glutamate and glycine were 50 μM and 30 μM, respectively. Concentration-response curves for experimental compounds were obtained by applying in successive fashion maximal glutamate/glycine, followed by glutamate/glycine plus variable concentrations of experimental compounds. Dose response curves consisting of four to eight concentrations were obtained in this manner. The baseline leak current at −40 mV was measured before and after recording, and the full recording linearly corrected for any change in leak current. The level of inhibition by applied experimental compounds was expressed as a percent of the initial glutamate response, and averaged together across oocytes from multiple experiments. Results were pooled, and the average percent responses at antagonist concentrations were fit by the equation, Percent Response=(100−minimum)/(1+([conc]/IC50)^nH)+minimum where minimum is the residual percent response in saturating concentration of the experimental compounds, IC50 is the concentration of antagonist that causes half of the achievable inhibition, and nH is a slope factor describing steepness of the inhibition curve. […]
For NMDA receptor subtype selectivity experiments human GluN1/GluN2A, GluN1/GluN2C, and GluN1/GluN2D cRNAs were expressed in Xenopus laevis as described above. Here, 10 μM concentrations of the antagonist was perfused with 50 μM glutamate and 30 μM glycine onto the oocyte for two min and the remaining current in the presence of the antagonist was compared to the maximal current obtained with 50 μM glutamate and 30 μM glycine alone (defined as 100%). When IC50 determinations were made against other NMDA receptor subtypes the protocol as described above was followed. […]

hNR2B, sequence (Q13224 27-1484, other chains not shown): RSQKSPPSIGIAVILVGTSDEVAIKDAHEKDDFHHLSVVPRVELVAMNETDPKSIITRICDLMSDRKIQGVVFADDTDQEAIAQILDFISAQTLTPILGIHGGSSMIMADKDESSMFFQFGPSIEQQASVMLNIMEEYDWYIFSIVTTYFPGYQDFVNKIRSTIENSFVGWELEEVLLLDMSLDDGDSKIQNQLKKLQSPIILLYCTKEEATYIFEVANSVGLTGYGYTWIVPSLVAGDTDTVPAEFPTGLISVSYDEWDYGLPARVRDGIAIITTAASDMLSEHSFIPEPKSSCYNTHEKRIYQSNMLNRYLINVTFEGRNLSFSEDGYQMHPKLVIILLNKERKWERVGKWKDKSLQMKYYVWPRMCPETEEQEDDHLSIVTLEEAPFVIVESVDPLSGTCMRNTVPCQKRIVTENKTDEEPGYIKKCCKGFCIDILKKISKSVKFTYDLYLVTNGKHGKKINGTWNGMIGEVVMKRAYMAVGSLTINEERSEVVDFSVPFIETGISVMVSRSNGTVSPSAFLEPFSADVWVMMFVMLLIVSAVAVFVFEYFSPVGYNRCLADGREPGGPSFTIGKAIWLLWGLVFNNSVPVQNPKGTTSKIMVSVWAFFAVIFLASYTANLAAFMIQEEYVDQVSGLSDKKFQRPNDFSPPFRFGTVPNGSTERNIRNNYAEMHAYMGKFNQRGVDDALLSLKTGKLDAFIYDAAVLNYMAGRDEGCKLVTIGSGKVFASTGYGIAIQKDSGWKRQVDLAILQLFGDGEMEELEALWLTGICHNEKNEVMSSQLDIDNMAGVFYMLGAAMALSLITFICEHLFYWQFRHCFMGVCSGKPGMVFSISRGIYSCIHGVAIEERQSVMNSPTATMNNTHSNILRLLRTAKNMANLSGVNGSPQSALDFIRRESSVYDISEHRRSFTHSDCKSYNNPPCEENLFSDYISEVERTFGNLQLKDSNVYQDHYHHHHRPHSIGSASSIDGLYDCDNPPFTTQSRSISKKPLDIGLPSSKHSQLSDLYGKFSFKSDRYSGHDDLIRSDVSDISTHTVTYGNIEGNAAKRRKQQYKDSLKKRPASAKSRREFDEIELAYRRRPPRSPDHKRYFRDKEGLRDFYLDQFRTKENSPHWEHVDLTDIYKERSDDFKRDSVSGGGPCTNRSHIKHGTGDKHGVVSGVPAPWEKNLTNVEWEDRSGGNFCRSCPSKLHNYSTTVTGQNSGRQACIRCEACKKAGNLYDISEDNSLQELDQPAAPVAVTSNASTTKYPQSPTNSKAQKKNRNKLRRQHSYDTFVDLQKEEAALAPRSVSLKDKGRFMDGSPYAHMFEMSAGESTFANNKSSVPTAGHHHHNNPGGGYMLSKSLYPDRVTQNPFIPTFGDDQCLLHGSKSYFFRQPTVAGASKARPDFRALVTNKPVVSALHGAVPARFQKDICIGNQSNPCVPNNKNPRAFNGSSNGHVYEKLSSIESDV

Compound	IC50 (read-out: Rating (hNR2B IC50))	IC50 (read-out: hNR2B IC50)
COc1nc(Nc2ccc(OC(F)F)cc2)ncc1COc1ccc2[nH]c(=O)ccc2c1 [Example 18, 6-((2-((4-(difluoromethoxy)phenyl)amino)-4-methoxypyrimidin-5-yl)methoxy)quinolin-2(1H)-one]		0.005 µM
FC(F)Oc1ccc(Nc2ncc(CCc3ccc4cn[nH]c4c3)cn2)cc1 [Example 113]	> 10 µM	
FC(F)Oc1ccc(Nc2ccc(CCc3ccc4[nH]ncc4c3)nn2)cc1 [Example 156, 6-(2-(1H-indazol-5-yl)ethyl)-N-(4-(difluoromethoxy)phenyl)pyridazin-3-amine]		0.135 µM
O=c1ccc2cc(OCc3cncc(Nc4ccc(Cl)cc4)n3)ccc2[nH]1 [Example 99]	1 to 10 µM	
FC(F)Oc1ccc(Nc2ncc(CCCNc3ncccn3)cn2)cc1 [Example 114]	> 10 µM	
Oc1ccc(OCc2cnc(Nc3ccc(Cl)c(Cl)c3)nc2)cc1 [Example 13, 4-((2-(3,4-dichlorophenylamino)pyrimidin-5-yl)methoxy)phenol]		0.395 µM
FC(F)Oc1ccc(Nc2ncc(CCc3ccc4[nH]ncc4c3)cn2)cc1 [Example 112]	0.201 to 1 µM	
CCc1ccc(Nc2ncc(CCc3ccc4[nH]ncc4c3)cn2)cc1F [Example 125]	1 to 10 µM	
Nc1ncc(OCc2cnc(Nc3ccc(OC(F)F)cc3)nc2)cn1 [Example 17, 5-((2-aminopyrimidin-5-yloxy)methyl)-N-(4-(difluoromethoxy)phenyl)pyrimidin-2-amine]		> 1 µM
O=C1Nc2ccc(CCc3cnc(Nc4ccc(OC(F)F)c(Cl)c4)nc3)cc2CO1 [Example 143]	< 0.2 µM	

Further lines, results first:

IC50 (read-out: Rating (hNR2B IC50))	IC50 (read-out: hNR2B IC50)	Compound
< 0.2 µM		Nc1nc2ccc(OCc3cnc(Nc4ccc(OC(F)F)cc4)nc3)cc2s1 [Example 65]
< 0.2 µM		FC(F)(F)Oc1ccc(Nc2ncc(COc3ccc4[nH]nnc4c3)cn2)cc1 [Example 68]
< 0.2 µM		Fc1cc(Nc2ncc(COc3ccc4[nH]ncc4c3Cl)cn2)ccc1OC(F)F [Example 72]
< 0.2 µM		Cc1ccc(Nc2ncc(CCc3ccc4c(c3)COC(=O)N4)cn2)cc1F [Example 149]
< 0.2 µM		O=c1ccc2cc(CCc3cnc(Nc4ccc(OC(F)F)cc4)nc3)ccc2[nH]1 [Example 109]
< 0.2 µM		CCc1ccc(Nc2ncc(CCc3ccc4c(c3)COC(=O)N4)cn2)cc1F [Example 144]
< 0.2 µM		O=c1ccc2cc(OCc3ccc(Nc4ccc(OC(F)(F)F)cc4)nc3)ccc2[nH]1 [Example 9]
< 0.2 µM		Cc1nc(Nc2ccc(Cl)cc2)ncc1COc1ccc2[nH]c(=O)ccc2c1 [Example 51]
< 0.2 µM		O=c1ccc2cc(OCc3cnc(Nc4ccc(F)cc4)nc3)ccc2[nH]1 [Example 30]
< 0.2 µM		O=C1Nc2ccc(CCc3cnc(Nc4ccc(OC(F)F)c(F)c4)nc3)cc2CO1 [Example 146]
< 0.2 µM		O=c1ccc2cc(OCc3cnc(Nc4ccc(Cl)c(Cl)c4)nc3)ccc2[nH]1 [Example 20]
< 0.2 µM		CCc1ccc(Nc2ncc(CCc3ccc4[nH]c(=O)ccc4c3)cn2)cc1 [Example 131]
< 0.2 µM		Cc1cc(Nc2ncc(COc3cc4ccc(=O)[nH]c4cc3F)cn2)ccc1OC(F)F [Example 78]
< 0.2 µM		Cc1cc(OCc2cnc(Nc3ccc(OC(F)(F)F)cc3)nc2)cc2cn[nH]c12 [Example 67]
< 0.2 µM		Cc1ccc(Nc2ncc(COc3ccc4[nH]c(=O)ccc4c3)cn2)cc1C [Example 41]
